The numbers were not newly measured in PMC2975871 (The FEBS journal, 2010), which cites them from elsewhere.

Converted amounts (≈) assume the structure as drawn.

In the case of `CC(C)CN(C[C@@H](O)[C@H](Cc1ccccc1)NC(=O)O[C@H]1CO[C@H]2OCC[C@H]21)S(=O)(=O)c1ccc(N)cc1` [DRV, darunavir], the “worse inhibition relative to wild type enzyme” value with PR with mutation I50V is reported as 9 fold.

`CC(C)(C)NC(=O)[C@@H]1CN(Cc2cccnc2)CCN1C[C@@H](O)C[C@@H](Cc1ccccc1)C(=O)N[C@H]1c2ccccc2C[C@H]1O` [IDV, indinavir]: the decreased inhibition in the data set with PR with mutation I50V is recorded as 50 fold.

For the compound `CC(C)(C)NC(=O)[C@@H]1C[C@@H]2CCCC[C@@H]2CN1C[C@@H](O)[C@H](Cc1ccccc1)NC(=O)[C@H](CC(N)=O)NC(=O)c1ccc2ccccc2n1` [SQV, saquinavir], the water solubility is 36 µg/mL (≈ 53.7 µM). For the same compound, in the data set on PR with mutation I50V, the decreased inhibition is 20 fold.

As to `CC(C)CN(C[C@@H](O)[C@H](Cc1ccccc1)NC(=O)O[C@H]1CCOC1)S(=O)(=O)c1ccc(N)cc1` [amprenavir], in the data set with I54M mutation, the “increased IC50” value is given as 6 fold.
